Read-outs that look alike come from different tables or passages of the source.
Target: DEN MTase (Dengue virus type 2, UniProt P29990)
Assay: GTP-Bodipy displacement
Type: binding
Details: for Fold Affinity Reduction: Ki relative to GTP
[1] = 10 nM GTP-Bodipy, 500 nM DEN MTase

Chain of DEN MTase (P29990 2493-2755 limits assumed): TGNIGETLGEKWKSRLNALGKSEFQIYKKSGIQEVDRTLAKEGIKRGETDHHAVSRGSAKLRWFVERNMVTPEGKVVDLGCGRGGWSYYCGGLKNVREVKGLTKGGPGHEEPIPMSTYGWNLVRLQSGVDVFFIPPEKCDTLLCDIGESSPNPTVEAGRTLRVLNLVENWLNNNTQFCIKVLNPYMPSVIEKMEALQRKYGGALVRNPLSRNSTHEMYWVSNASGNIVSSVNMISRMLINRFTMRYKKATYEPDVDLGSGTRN

Row | Structure (SMILES) | Ki [1] | Ki | Fold Affinity Reduction
1 | Nc1nc2c(ncn2[C@@H]2O[C@H](COP(=O)(O)O)[C@@H](O)[C@H]2O)c(=O)[nH]1 [GMP] | 950 nM | – | –
2 | Cn1c[n+]([C@@H]2O[C@H](COP(=O)(O)OP(=O)(O)OP(=O)(O)OC[C@H]3O[C@@H](n4cnc5c(=O)[nH]c(N)nc54)[C@H](O)[C@@H]3O)[C@@H](O)[C@H]2O)c2nc(N)[nH]c(=O)c21 [^7meGpppG] | 100 nM | – | –
3 | Nc1nc2c(ncn2[C@@H]2O[C@H](CO)[C@@H](O)[C@H]2O)c(=O)[nH]1 [Guanosine, guanosine] | – | 260000 nM | 6400
4 | O=c1[nH]c(=O)c2ncn([C@@H]3O[C@H](COP(=O)(O)OP(=O)(O)OP(=O)(O)O)[C@@H](O)[C@H]3O)c2[nH]1 [XTP, xanthine triphosphate] | 480 nM | – | 12
5 | Nc1nc2c(ncn2[C@@H]2O[C@H](COP(=O)(O)OP(=O)(O)O)[C@@H](O)[C@H]2O)c(=O)[nH]1 [GDP] | 100 nM | – | 3
6 | Nc1nc2c(ncn2[C@H]2C[C@H](O)[C@@H](COP(=O)(O)OP(=O)(O)OP(=O)(O)O)O2)c(=O)[nH]1 [dGTP] | 610 nM | – | 15
7 | Nc1ncnc2c1ncn2[C@@H]1O[C@H](COP(=O)(O)OP(=O)(O)OP(=O)(O)O)[C@@H](O)[C@H]1O [ATP, Adenosine triphosphate] | – | 350000 nM | 8750
8 | CSc1nc(N)nc2c1ncn2C1OC(COP(=O)(O)OP(=O)(O)OP(=O)(O)O)C(O)C1O (centres unmarked) [6-methylthio GTP, 6-methylthio-GTP] | 230 nM | – | –
9 | O=c1[nH]cnc2c1ncn2[C@@H]1O[C@H](COP(=O)(O)OP(=O)(O)OP(=O)(O)O)[C@@H](O)[C@H]1O [ITP, Inosine triphosphate] | 120 nM | – | 3
10 | Nc1nc2c(ncn2[C@@H]2O[C@H](COP(=O)(O)OP(=O)(O)OP(=O)(O)O)[C@@H](O)[C@H]2O)c(=O)[nH]1 [GTP, guanosine triphosphate] | – | 40 nM | 0
11 | Cn1c[n+]([C@@H]2O[C@H](COP(=O)(O)OP(=O)(O)OP(=O)(O)OC[C@H]3O[C@@H](n4cnc5c(N)ncnc54)[C@H](O)[C@@H]3O)[C@@H](O)[C@H]2O)c2nc(N)[nH]c(=O)c21 [^7meGpppA] | 170 nM | – | –
12 | Nc1nc2c(ncn2[C@H]2CC[C@@H](COP(=O)(O)OP(=O)(O)OP(=O)(O)O)O2)c(=O)[nH]1 [ddGTP] | 770 nM | – | 19
